Reference: US10294202B2, “Pyrrolidinones as herbicides” (FMC Corporation, priority 2013, dated 2019)

Assays:
velvetleaf = experiment: Test C pre-/postemergence herbicide test; assay type: in vivo, Abutilon theophrasti
Procedure, shortened: (§1)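 Plants grown and held in a greenhouse for 13 to 15 days post-spray, then rated 0–100 by visual comparison with controls. Pre treatments targeted seeds in loam and sand; post treatments targeted 1- to 4-leaf plants in peat-based potting medium.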

barnyardgrass [1] = experiment: Test A pre-/postemergence herbicide test; assay type: in vivo, Echinochloa crus-galli; settings: for Barnyardgrass plant response rating: Preemergence, visual rating on 0 to 100 scale (0 no effect, 100 complete control)
Procedure, shortened: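 Approximately 10 days after treatment in the greenhouse, plants were compared with untreated controls and given a 0–100 visual injury rating. Applications: preemergence directed soil spray; postemergence on 2–10 cm plants at the one- to two-leaf stage.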

lambsquarters = experiment: Test C pre-/postemergence herbicide test; assay type: in vivo, Chenopodium album
Procedure, shortened: as §1

sedge, umbrella = experiment: Test B flooded paddy test; assay type: in vivo, Cyperus difformis; settings: Flood, scale of 0 to 100 where 0 is no effect and 100 is complete control
Procedure, shortened: (§2)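 Paddy-water application at a 3 cm flood, young plants having two leaves. Water level maintained; greenhouse, 13–15 days; visual 0–100 control rating.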

crabgrass, large = experiment: Test C pre-/postemergence herbicide test; assay type: in vivo, Digitaria sanguinalis
Procedure, shortened: as §1

oat, wild = experiment: Test C pre-/postemergence herbicide test; assay type: in vivo, Avena fatua
Procedure, shortened: as §1

barnyardgrass [2] = experiment: Test B flooded paddy test; assay type: in vivo, Echinochloa crus-galli; settings: Flood, scale of 0 to 100 where 0 is no effect and 100 is complete control
Procedure, shortened: as §2

wheat (winter wheat) = experiment: Test C pre-/postemergence herbicide test; assay type: in vivo, Triticum aestivum
Procedure, shortened: as §1

soybean = experiment: Test C pre-/postemergence herbicide test; assay type: in vivo, Glycine max
Procedure, shortened: as §1

corn = experiment: Test C pre-/postemergence herbicide test; assay type: in vivo, Zea mays
Procedure, shortened: as §1

blackgrass = experiment: Test C pre-/postemergence herbicide test; assay type: in vivo, Alopecurus myosuroides
Procedure, shortened: as §1

[3] = Postemergence, 31 g ai/ha, scale 0 (no effect) to 100 (complete control)
[4] = Postemergence, 62 g ai/ha, scale 0 to 100 (0 no effect, 100 complete control)
[5] = Postemergence, 125 g ai/ha, scale 0 to 100 (0 no effect, 100 complete control)
[6] = Postemergence, 250 g ai/ha, scale 0 to 100 (0 no effect, 100 complete control)
[7] = Preemergence, 31 g ai/ha, scale 0 to 100, 0 is no effect and 100 is complete control
[8] = Preemergence, 62 g ai/ha, scale 0 to 100
[9] = Preemergence, 125 g ai/ha, scale 0 to 100 (0 no effect, 100 complete control)
[10] = Postemergence, 125 g ai/ha, 0 to 100 scale, 0 no effect, 100 complete control
[11] = Postemergence, 500 g ai/ha, 0 to 100 scale (0 no effect, 100 complete control)
[12] = preemergence, 500 g ai/ha, 0 to 100 scale (0 no effect, 100 complete control)
[13] = Postemergence, 16 g ai/ha, scale 0 to 100 (0 no effect, 100 complete control)
[14] = Preemergence, 16 g ai/ha, scale 0 to 100
[15] = Preemergence, 31 g ai/ha, scale 0 to 100 (0 no effect, 100 complete control)

SMILES: Cc1c(F)cccc1NC(=O)C1C(=O)NCC1c1ccc(F)c(F)c1 (racemic) [Compound 106]
- Plant response rating, Velvetleaf (velvetleaf; [3]): 0
- Plant response rating, Velvetleaf (velvetleaf; [4]): 0
- Plant response rating, Velvetleaf (velvetleaf; [5]): 5
- Plant response rating, Velvetleaf (velvetleaf; [6]): 5
- Plant response rating, Barnyardgrass (barnyardgrass [1]; Postemergence, 1000 g ai/ha, 0 to 100 scale (0 no effect, 100 complete control)): 90
- Plant response rating, Barnyardgrass (barnyardgrass [1]; preemergence, 1000 g ai/ha, 0 to 100 scale (0 no effect, 100 complete control)): 90
- Plant response rating, Lambsquarters (lambsquarters; [3]): 0
- Plant response rating, Lambsquarters (lambsquarters; [4]): 25
- Plant response rating, Lambsquarters (lambsquarters; [5]): 0
- Plant response rating, Lambsquarters (lambsquarters; [6]): 0
- Plant response rating, Sedge, Umbrella (sedge, umbrella; 1000 g ai/ha): 0
- Plant response rating, Crabgrass, Large (crabgrass, large; [3]): 10
- Plant response rating, Crabgrass, Large (crabgrass, large; [4]): 10
- Plant response rating, Crabgrass, Large (crabgrass, large; [5]): 25
- Plant response rating, Crabgrass, Large (crabgrass, large; [6]): 60
- Plant response rating, Oat, Wild (oat, wild; [3]): 0
- Plant response rating, Oat, Wild (oat, wild; [4]): 0
- Plant response rating, Oat, Wild (oat, wild; [5]): 0
- Plant response rating, Oat, Wild (oat, wild; [6]): 0
- Plant response rating, Barnyardgrass (barnyardgrass [2]; 1000 g ai/ha): 60
- Plant response rating, Wheat (wheat (winter wheat); [3]): 0
- Plant response rating, Wheat (wheat (winter wheat); [4]): 0
- Plant response rating, Wheat (wheat (winter wheat); [5]): 0
- Plant response rating, Wheat (wheat (winter wheat); [6]): 0
- Plant response rating, Soybean (soybean; [3]): 0
- Plant response rating, Soybean (soybean; [4]): 0
- Plant response rating, Soybean (soybean; [5]): 5
- Plant response rating, Soybean (soybean; [6]): 5
- Plant response rating, Corn (corn; [3]): 0
- Plant response rating, Corn (corn; [4]): 0
- Plant response rating, Corn (corn; [5]): 0
- Plant response rating, Corn (corn; [6]): 0
- Plant response rating, Blackgrass (blackgrass; [3]): 0
- Plant response rating, Blackgrass (blackgrass; [4]): 0
- Plant response rating, Blackgrass (blackgrass; [5]): 0
- Plant response rating, Blackgrass (blackgrass; [6]): 0

SMILES: Cc1ccccc1NC(=O)C1C(=O)NCC1c1cccc(C(F)(F)F)c1 (racemic) [Compound 109]
- Plant response rating, Velvetleaf (velvetleaf; [3]): 0
- Plant response rating, Velvetleaf (velvetleaf; [4]): 0
- Plant response rating, Velvetleaf (velvetleaf; [5]): 0
- Plant response rating, Velvetleaf (velvetleaf; [6]): 5
- Velvetleaf plant response rating (velvetleaf; [7]): 0
- Plant response rating, Velvetleaf (velvetleaf; [8]): 0
- Plant response rating, Velvetleaf (velvetleaf; [9]): 0
- Plant response rating (scale of 0 to 100), Velvetleaf (velvetleaf; Preemergence, 250 g ai/ha): 10
- Plant response rating, Barnyardgrass (barnyardgrass [1]; [10]): 90
- Plant response rating, Barnyardgrass (barnyardgrass [1]; [11]): 90
- Barnyardgrass plant response rating (barnyardgrass [1]; 125 g ai/ha): 80
- Plant response rating, Barnyardgrass (barnyardgrass [1]; [12]): 90
- Plant response rating, Lambsquarters (lambsquarters; [3]): 0
- Plant response rating, Lambsquarters (lambsquarters; [4]): 0
- Plant response rating, Lambsquarters (lambsquarters; [5]): 0
- Plant response rating, Lambsquarters (lambsquarters; [6]): 5
- Lambsquarters plant response rating (lambsquarters; [7]): 0
- Plant response rating, Lambsquarters (lambsquarters; [8]): 0
- Plant response rating, Lambsquarters (lambsquarters; [9]): 5
- Plant response rating (scale of 0 to 100), Lambsquarters (lambsquarters; Preemergence, 250 g ai/ha): 0
- Plant response rating, Sedge, Umbrella (sedge, umbrella; 1000 g ai/ha): 80
- Plant response rating, Crabgrass, Large (crabgrass, large; [3]): 10
- Plant response rating, Crabgrass, Large (crabgrass, large; [4]): 10
- Plant response rating, Crabgrass, Large (crabgrass, large; [5]): 40
- Plant response rating, Crabgrass, Large (crabgrass, large; [6]): 70
- Crabgrass, Large plant response rating (crabgrass, large; [7]): 98
- Plant response rating, Crabgrass, Large (crabgrass, large; [8]): 100
- Plant response rating, Crabgrass, Large (crabgrass, large; [9]): 100
- Plant response rating (scale of 0 to 100), Crabgrass, Large (crabgrass, large; Preemergence, 250 g ai/ha): 100
- Plant response rating, Oat, Wild (oat, wild; [3]): 0
- Plant response rating, Oat, Wild (oat, wild; [4]): 0
- Plant response rating, Oat, Wild (oat, wild; [5]): 0
- Plant response rating, Oat, Wild (oat, wild; [6]): 0
- Plant response rating, Barnyardgrass (barnyardgrass [2]; 1000 g ai/ha): 0
- Plant response rating, Wheat (wheat (winter wheat); [3]): 0
- Plant response rating, Wheat (wheat (winter wheat); [4]): 0
- Plant response rating, Wheat (wheat (winter wheat); [5]): 0
- Plant response rating, Wheat (wheat (winter wheat); [6]): 0
- Wheat plant response rating (wheat (winter wheat); [7]): 0
- Plant response rating, Wheat (wheat (winter wheat); [8]): 10
- Plant response rating, Wheat (wheat (winter wheat); [9]): 50
- Plant response rating (scale of 0 to 100), Wheat (wheat (winter wheat); Preemergence, 250 g ai/ha): 85
- Plant response rating, Soybean (soybean; [3]): 0
- Plant response rating, Soybean (soybean; [4]): 0
- Plant response rating, Soybean (soybean; [5]): 5
- Plant response rating, Soybean (soybean; [6]): 5
- Soybean plant response rating (soybean; [7]): 100
- Plant response rating, Soybean (soybean; [8]): 0
- Plant response rating, Soybean (soybean; [9]): 55
- Plant response rating (scale of 0 to 100), Soybean (soybean; Preemergence, 250 g ai/ha): 0
- Plant response rating, Corn (corn; [3]): 0
- Plant response rating, Corn (corn; [4]): 0
- Plant response rating, Corn (corn; [5]): 0
- Plant response rating, Corn (corn; [6]): 5
- Corn plant response rating (corn; [7]): 0
- Plant response rating, Corn (corn; [8]): 5
- Plant response rating, Corn (corn; [9]): 60
- Plant response rating (scale of 0 to 100), Corn (corn; Preemergence, 250 g ai/ha): 75
- Plant response rating, Blackgrass (blackgrass; [3]): 0
- Plant response rating, Blackgrass (blackgrass; [4]): 0
- Plant response rating, Blackgrass (blackgrass; [5]): 0
- Plant response rating, Blackgrass (blackgrass; [6]): 0
- Blackgrass plant response rating (blackgrass; [7]): 0
- Plant response rating, Blackgrass (blackgrass; [8]): 60
- Plant response rating, Blackgrass (blackgrass; [9]): 90
- Plant response rating (scale of 0 to 100), Blackgrass (blackgrass; Preemergence, 250 g ai/ha): 95

SMILES: O=C1NCC(c2cc(F)c(F)c(F)c2)C1C(=O)Nc1cccc(F)c1F (stereo not drawn) [Compound 48]
- Plant response rating, Velvetleaf (velvetleaf; [13]): 0
- Plant response rating, Velvetleaf (velvetleaf; [3]): 0
- Plant response rating, Velvetleaf (velvetleaf; [4]): 15
- Plant response rating, Velvetleaf (velvetleaf; [5]): 35
- Plant response rating, Velvetleaf (velvetleaf; [8]): 0
- Plant response rating, Velvetleaf (velvetleaf; [9]): 0
- Plant response rating, Velvetleaf (velvetleaf; [14]): 0
- Plant response rating, Barnyardgrass (barnyardgrass [1]; [10]): 80
- Plant response rating, Barnyardgrass (barnyardgrass [1]; [11]): 90
- Barnyardgrass plant response rating (barnyardgrass [1]; 125 g ai/ha): 80
- Plant response rating, Barnyardgrass (barnyardgrass [1]; [12]): 90
- Plant response rating, Lambsquarters (lambsquarters; [3]): 10
- Plant response rating, Lambsquarters (lambsquarters; [5]): 10
- Plant response rating, Lambsquarters (lambsquarters; [8]): 65
- Plant response rating, Lambsquarters (lambsquarters; [9]): 65
- Plant response rating, Lambsquarters (lambsquarters; [14]): 0
- Plant response rating, Sedge, Umbrella (sedge, umbrella; 250 g ai/ha): 60
- Plant response rating, Crabgrass, Large (crabgrass, large; [13]): 20
- Plant response rating, Crabgrass, Large (crabgrass, large; [3]): 40
- Plant response rating, Crabgrass, Large (crabgrass, large; [4]): 65
- Plant response rating, Crabgrass, Large (crabgrass, large; [5]): 75
- Plant response rating, Crabgrass, Large (crabgrass, large; [8]): 90
- Plant response rating, Crabgrass, Large (crabgrass, large; [9]): 95
- Plant response rating, Crabgrass, Large (crabgrass, large; [14]): 75
- Crabgrass, Large plant response rating (crabgrass, large; [15]): 85
- Plant response rating, Oat, Wild (oat, wild; [13]): 0
- Plant response rating, Oat, Wild (oat, wild; [3]): 0
- Plant response rating, Oat, Wild (oat, wild; [4]): 0
- Plant response rating, Oat, Wild (oat, wild; [5]): 0
- Plant response rating, Oat, Wild (oat, wild; [8]): 0
- Plant response rating, Oat, Wild (oat, wild; [9]): 10
- Plant response rating, Oat, Wild (oat, wild; [14]): 0
- Plant response rating, Barnyardgrass (barnyardgrass [2]; 250 g ai/ha): 40
- Plant response rating, Wheat (wheat (winter wheat); [13]): 0
- Plant response rating, Wheat (wheat (winter wheat); [3]): 0
- Plant response rating, Wheat (wheat (winter wheat); [4]): 0
- Plant response rating, Wheat (wheat (winter wheat); [5]): 5
- Plant response rating, Wheat (wheat (winter wheat); [8]): 20
- Plant response rating, Wheat (wheat (winter wheat); [9]): 45
- Plant response rating, Wheat (wheat (winter wheat); [14]): 0
- Plant response rating, Soybean (soybean; [13]): 5
- Plant response rating, Soybean (soybean; [3]): 10
- Plant response rating, Soybean (soybean; [4]): 10
- Plant response rating, Soybean (soybean; [5]): 10
- Plant response rating, Soybean (soybean; [8]): 10
- Plant response rating, Soybean (soybean; [9]): 15
- Plant response rating, Soybean (soybean; [14]): 10
- Plant response rating, Corn (corn; [13]): 0
- Plant response rating, Corn (corn; [3]): 5
- Plant response rating, Corn (corn; [4]): 5
- Plant response rating, Corn (corn; [5]): 5
- Plant response rating, Corn (corn; [8]): 20
- Plant response rating, Corn (corn; [9]): 20
- Plant response rating, Corn (corn; [14]): 0
- Corn plant response rating (corn; [15]): 0
- Plant response rating, Blackgrass (blackgrass; [13]): 0
- Plant response rating, Blackgrass (blackgrass; [3]): 0
- Plant response rating, Blackgrass (blackgrass; [4]): 0
- Plant response rating, Blackgrass (blackgrass; [5]): 0
- Plant response rating, Blackgrass (blackgrass; [8]): 20
- Plant response rating, Blackgrass (blackgrass; [9]): 50
- Plant response rating, Blackgrass (blackgrass; [14]): 0
- Blackgrass plant response rating (blackgrass; [15]): 0
